Patent US20090239839A1, “RECEPTOR ANTAGONIST” (TAKEDA PHARMACEUTICAL COMPANY LIMITED, priority 2003, published 2009)
Counter-ions that a name gives are not always drawn.

Columns and labels:
human-type OT7T022 = molecular target: T1, human-type OT7T022 (Homo sapiens, UniProt Q9GZQ6); assay: Binding inhibiting activity using human-type OT7T022-expressing CHO cell; details: 125I-labeled Y-RFRP-3 100 pM, membrane fraction, room temperature 1.5 hours; read-out: IC50 value (binding inhibiting rate)
T1 construct: expressed in transfected cells; host or cells: CHO cells (membrane fraction)
Method: Assessment of Binding Inhibiting Activity of Test Compound Using Human-Type OT7T022-Expressing CHO Cell
Twenty μm of a peptide (Y-RFRP-3) (sequence: Tyr-Val-Pro-Asn-Leu-Pro-Gln-Arg-Phe-amide) (0.1 mM) in which a Tyr residue had been added to a N-terminus of hRFRP-3-8 (sequence: Val-Pro-Asn-Leu-Pro-Gln-Arg-Phe-amide) having binding inhibiting activity equivalent to that of endogenous human-type RFRP-3 (hRFRP-3-28) for human-type OT7T022-expressing CHO cell and 10 μl of distilled water were mixed, 20 μl of a lactoperoxidase solution (Sigma, prepared using 0.1 M HEPES-NaOH, pH 7.0 in 10 μg/mL), 10 μl of Iodine-125 (Amersham, IMS-30, 74 MBq), and 20 μl of 0.005% hydrogen peroxide (Wako Pure Chemical Industries, Ltd.) were successively mixed therein, the mixture was allowed to stand at room temperature for 10 minutes, 600 μl of 0.1% TFA-water was added, this was separated by reverse phase HPLC, a peak of the labeled form was collected, an equivalent amount of a buffer for a binding test (50 mM TrisHCl (pH 7.5), 0.1% BSA, 5 mM EDTA, 0.5 mM PMSF, 20 μg/mL leupeptin, 0.1 μg/mL pepstatin A, […]) was added, and this was immediately stored on ice. A part thereof was 1/100 diluted, radioactivity was measured with a γ-counter, and the remaining authentic product was distributed, which was stored at −30° C.
To a 96-well microplate were added 1 μg of a membrane fraction, a compound and Y-RFRP-3 labeled with ^125I, which had been diluted with a reaction buffer (50 mM Tris-HCl, 5 mM EDTA, 0.1% BSA, 0.5 mM PMSF, 20 μg/ml leupeptin, 0.1 μg/ml pepstatin A, 4 μg/ml E-64, 10 mM MgCl2, pH 7.5), to 100 pM to react them at room temperature for 1.5 hours. For measuring non-specific binding, non-labeled Y-RFRP-3 was further added to […]. Then, a membrane fraction was transferred to a unifilter GF/C (Perkin Elmer) by filtering the reaction mixture using a cell harvester (Perkin Elmer), and this was washed with a cooled 50 mM Tris buffer (pH 7.5) five times. The filter was dried, Microsinti (Packard) was added to the filter, and radioactivity was measured with Topcount (Packard).
A binding inhibiting rate (IC50 value) of a test compound is shown in [Table 1].

rat-type OT7T022 = molecular target: T2, rat-type OT7T022 (Rattus norvegicus, UniProt Q9EP86); assay: Binding inhibiting activity using rat-type OT7T022-expressing CHO cell membrane fraction; details: iodine-labeled Y-RFRP-3 100 pM, membrane fraction 0.75 μg/well
T2 construct: expressed in transfected cells; host or cells: CHO cells (membrane fraction)
Method: Assessment of Binding Inhibiting Activity of Test Compound Using Rat-Type OT7T022-Expressing CHO Cell
A flask in which a rat-type OT7T022-expressing CHO cell had been cultured was washed with 5 mM EDTA/PBS, cells were peeled with 5 mM EDTA/PBS, and cells were recovered by centrifugation, suspended in 25 mL of a buffer for preparing a membrane fraction (50 mM Tris-HCl, pH 7.5, 5 mM EDTA, 0.5 mM PMSF (manufactured by Wako Pure Chemical Industries, Ltd.), […] (manufactured by Peptide Laboratory), 0.1 μg/mL pepstatin A (manufactured by Peptide Laboratory), 4 μg/mL E-64 (manufactured by Peptide Laboratory)), and homogenized on an ice using Polytron (12,000 rpm, 15 seconds×3 times). This was centrifuged in a high speed cooling centrifuge at 4° C. and 1,000 g for 10 minutes, and the supernatant was recovered. 25 mL of a buffer for preparing a membrane fraction was added to precipitates, and the supernatant was recovered by the same procedure. These supernatants were combined, subjected to a cell strainer, dispensed into tubes for a supercentrifuge, and centrifuged at 4° C. and 100,000 g for 1 hour. The pellet was suspended in a small amount of a buffer for preparing a membrane fraction, this was suspended using a Teflon (registered trade mark) homogenizer, a protein amount was measured using a part, and the remaining was dispensed, and stored at −80° C.
Using an assay buffer (50 mM Tris-HCl, pH 7.5, 5 mM EDTA, 0.5 mM PMSF, 20 μg/mL leupeptin, 0.1 μg/mL pepstatin A, 4 μg/mL E-64, 0.1% bovine serum albumin, 10 mM MgCl2), a membrane fraction of a rat-type OT7T022-expressing CHO cell was diluted to the final concentration of 0.75 μg/well, and iodine-labeled Y-RFRP-3 was diluted to the final concentration of 100 pM. Regarding a sample compound, a 10^−2M or 10^−3M stock solution was diluted with an assay buffer so that the final concentration became 10^−5M, 10^−6M, 10^−7M, 10^−8M, 10^−9M, 10^−10M or 10^−11M. For non-specific binding, hRFRP-3-8 having the final concentration of 10^−5M was prepared. Using a polypropylene 96-well plate, a prepared sample solution, a non-specific binding solution, and 50 μl of an assay buffer for total binding were dispensed, 25 μl of an iodine-labeled form diluent was added, the mixture was stirred, 25 μl of a rat-type OT7T022-expressing CHO cell membrane fraction solution was dispensed, and this was stirred, and incubated at room temperature for 1.5 hours. This was transferred to a unifilter (Perkin Elmer) pre-wetted with a washing buffer (50 mM Tris-HCl, pH 7.5) using a harvester for a 96-well plate (Packard), and this was washed with a washing buffer six times, and sufficiently dried. 50 μl of Microscinti O (Packard) was dispensed, radioactivity was measured with Top Count (Packard), and data were analyzed in a triplicate manner. Binding inhibiting activity (IC50 value) of a test compound for rat-type OT7T022 is shown in [Table 3].

RFRP-1-administered rats = assay: Inhibitory activity of increase in blood glucose and blood glucagon concentration in RFRP-1-administered rats; format: in vivo, rat
ICR mouse = assay: Analgesic activity in mouse, SP-it test method; format: in vivo; details: for Chewing time: counted for 1 minute
Method: Analgesic Activity in Mouse
Analgesic activity of an RFRP receptor antagonist on provisional pain caused by intrathecal injection (it administration) of substance P (SP) was investigated. In a test, one group (10 animals) of an ICR mouse (♂), 5 week old, was used. A skin of a back of a mouse was excised under ether anesthesia and, after 3 hours or longer recovering time, substance P (SP) was dissolved in a physiological saline, and this was administered by intrathecal injection (between L5-L6) at 10 ng/5 μL/mouse. A physiological saline and the compound of Example 50 were administered by intrathecal injection as a mixed solution with substance P (SP) at a dose of 1, 3 or 10 μg/mouse. From immediately after administration, the number of alternate chewing at a lower abdomen by a mouse was counted for 1 minute, and the time was used as an index for a provisional pain reaction due to substance P (SP).

T2 sequence (Q9EP86 whole entry): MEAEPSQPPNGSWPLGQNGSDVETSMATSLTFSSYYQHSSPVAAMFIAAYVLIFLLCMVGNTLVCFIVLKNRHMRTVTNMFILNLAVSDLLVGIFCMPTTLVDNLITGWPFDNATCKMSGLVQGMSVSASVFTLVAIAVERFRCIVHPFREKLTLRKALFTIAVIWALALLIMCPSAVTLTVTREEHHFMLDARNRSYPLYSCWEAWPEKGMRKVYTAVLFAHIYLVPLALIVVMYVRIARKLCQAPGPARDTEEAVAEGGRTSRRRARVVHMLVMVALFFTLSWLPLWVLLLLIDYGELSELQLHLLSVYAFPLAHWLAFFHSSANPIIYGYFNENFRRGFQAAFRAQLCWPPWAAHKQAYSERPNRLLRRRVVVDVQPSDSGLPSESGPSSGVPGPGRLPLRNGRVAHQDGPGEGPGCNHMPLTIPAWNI
T1 sequence (Q9GZQ6 whole entry): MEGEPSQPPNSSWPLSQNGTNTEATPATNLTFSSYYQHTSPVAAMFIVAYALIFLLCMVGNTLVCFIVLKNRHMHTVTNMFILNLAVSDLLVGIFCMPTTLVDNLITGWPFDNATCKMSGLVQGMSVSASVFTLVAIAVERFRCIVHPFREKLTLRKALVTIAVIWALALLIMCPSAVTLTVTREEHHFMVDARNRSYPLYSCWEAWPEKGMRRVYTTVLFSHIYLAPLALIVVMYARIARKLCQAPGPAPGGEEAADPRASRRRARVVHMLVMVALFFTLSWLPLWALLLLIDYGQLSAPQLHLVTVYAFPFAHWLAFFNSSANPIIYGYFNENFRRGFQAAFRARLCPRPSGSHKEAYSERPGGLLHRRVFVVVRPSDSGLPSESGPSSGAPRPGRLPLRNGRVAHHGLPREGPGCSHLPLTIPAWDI

SMILES: CCCCCNCCCOc1cccc([C@H]2O[C@H](CC(=O)NCc3ccccc3F)C(=O)N(CC(C)(C)C)c3ccc(Cl)cc32)c1OC (relative stereo) [Example 4, 2-{3,5-trans-7-Chloro-1-(2,2-dimethylpropyl)-5-[2-methoxy-3-(3-(pentylamino)propoxy)phenyl]-2-oxo-1,2,3,5-tetrahydro-4,1-benzoxazepin-3-yl}-N-(2-fluorobenzyl)acetamide hydrochloride]
- IC50 (human-type OT7T022): < 1000 nM
- IC50 (rat-type OT7T022): < 1000 nM

SMILES: COc1c(OCCCNC/C=C/c2ccccc2)cccc1[C@H]1O[C@H](CC(=O)NCc2ccccc2F)C(=O)N(CC(C)(C)C)c2ccc(Cl)cc21 (relative stereo) [Example 18, trans-2-[7-Chloro-1-(2,2-dimethylpropyl)-5-[2-methoxy-3-(3-{[(2E)-3-phenyl-2-propenyl]amino}propoxy)phenyl]-2-oxo-1,2,3,5-tetrahydro-4,1-benzoxazepin-3-yl]-N-(2-fluorobenzyl)acetamide hydrochloride]
- IC50 (human-type OT7T022): < 1000 nM
- IC50 (rat-type OT7T022): < 1000 nM

SMILES: COc1c(OCCCNCCCc2ccccc2Cl)cccc1[C@H]1O[C@H](CC(=O)NCc2ccccc2F)C(=O)N(CC(C)(C)C)c2ccc(Cl)cc21 (relative stereo) [Example 14, trans-2-{7-Chloro-5-[3-(3-{[3-(2-chlorophenyl)propyl]amino}propoxy)-2-methoxyphenyl]-1-(2,2-dimethylpropyl)-2-oxo-1,2,3,5-tetrahydro-4,1-benzoxazepin-3-yl}-N-(2-fluorobenzyl)acetamide hydrochloride]
- IC50 (human-type OT7T022): < 1000 nM
- IC50 (rat-type OT7T022): < 1000 nM

SMILES: COc1c(OCCCNCCCc2ccccc2)cccc1[C@H]1O[C@H](CC(=O)N2CCNCC2)C(=O)N(CC(C)(C)C)c2ccc(Cl)cc21.Cl.Cl (relative stereo) [Example 50, trans-7-Chloro-1-(2,2-dimethylpropyl)-5-(2-methoxy-3-{3-[(3-phenylpropyl)amino]propoxy}phenyl)-3-[2-oxo-2-(1-piperazinyl)ethyl]-1,5-dihydro-4,1-benzoxazepine-2(3H)-one dihydrochloride]
- IC50 (human-type OT7T022): < 1000 nM
- IC50 (rat-type OT7T022): < 1000 nM
- inhibition of activity of increasing blood glucose concentration due to RFRP-1 (RFRP-1-administered rats; 5 mg/kg intravenous): inhibited significantly (p<0.01, n=4)
- inhibition of activity of increasing blood glucagon concentration due to RFRP-1 (RFRP-1-administered rats; 5 mg/kg intravenous, 2 minutes after administration of RFRP-1 (p<0.05)): significantly inhibited
- inhibition of activity of increasing blood glucagon concentration due to RFRP-1 (RFRP-1-administered rats; 5 mg/kg intravenous, 5 minutes after administration of RFRP-1 (p<0.001)): significantly inhibited
- inhibition of increase in blood glucagon concentration due to RFRP-1 (RFRP-1-administered rats; 0.2, 1 or 5 mg/kg intravenous 5 minutes before RFRP-1): inhibits increase in a blood glucagon concentration due to RFRP-1 in a dose dependent manner
- inhibition of increase in blood glucose concentration due to RFRP-1 (RFRP-1-administered rats; 0.2, 1 or 5 mg/kg intravenous 5 minutes before RFRP-1, vs control group): inhibits increase in a blood glucose concentration due to RFRP-1 in a dose dependent manner
- analgesic activity (pain reaction due to substance P) (ICR mouse; 1, 3 or 10 μg/mouse intrathecal): a pain reaction due to substance P (SP) is inhibited in a dose dependent manner
- Chewing time (ICR mouse; dose 1 μg/mouse intrathecal with substance P 10 ng/mouse): 71.8 ± 5.1
- Chewing time (ICR mouse; dose 3 μg/mouse intrathecal with substance P 10 ng/mouse): 18.6 ± 4.1
- Chewing time (ICR mouse; dose 10 μg/mouse intrathecal with substance P 10 ng/mouse): 0.0 ± 0.0
- decrease in the chewing time (ICR mouse; dose of 3 and 10 μg/mouse intrathecal): significant (p<0.01) decrease in the chewing time

SMILES: CCCNC(=O)C[C@H]1O[C@H](c2cccc(OCCCNCCCc3ccccc3)c2OC)c2cc(Cl)ccc2N(CC(C)(C)C)C1=O (relative stereo) [Example 46, trans-2-[7-Chloro-1-(2,2-dimethylpropyl)-5-(2-methoxy-3-{3-[(3-phenylpropyl)amino]propoxy}phenyl)-2-oxo-1,2,3,5-tetrahydro-4,1-benzoxazepin-3-yl]-N-propylacetamide hydrochloride]
- IC50 (human-type OT7T022): < 1000 nM
- IC50 (rat-type OT7T022): < 1000 nM

SMILES: COc1c(OCCCNCCCc2ccccc2)cccc1[C@H]1O[C@H](CC(=O)N2CCC(O)CC2)C(=O)N(CC(C)(C)C)c2ccc(Cl)cc21 (relative stereo) [Example 85, trans-7-Chloro-1-(2,2-dimethylpropyl)-3-[2-(4-hydroxypiperidin-1-yl)-2-oxoethyl]-5-(2-methoxy-3-{3-[(3-phenylpropyl)amino]propoxy}phenyl)-1,5-dihydro-4,1-benzoxazepine-2(3H)-one hydrochloride]
- IC50 (human-type OT7T022): < 1000 nM
- IC50 (rat-type OT7T022): < 1000 nM

SMILES: COc1c(OCCCNCCCc2ccccc2)cccc1[C@H]1O[C@H](CC(=O)N2CCNC(C(=O)O)C2)C(=O)N(CC(C)(C)C)c2ccc(Cl)cc21 (relative stereo) [Example 86, 4-{[3,5-trans-7-Chloro-1-(2,2-dimethylpropyl)-5-(2-methoxy-3-{3-[(3-phenylpropyl)amino]propoxy}phenyl)-2-oxo-1,2,3,5-tetrahydro-4,1-benzoxazepin-3-yl]acetyl}piperazine-2-carboxylic acid dihydrochloride]
- IC50 (human-type OT7T022): < 1000 nM
- IC50 (rat-type OT7T022): < 1000 nM
